Assay results published in patent publication US7566737B2 (Genfit, priority 2002, dated 2009).

Key:
[1] = test system: hApoE2 Knock-in transgenic mice; test: Effects on triglycerides and cholesterol metabolism in vivo; parameters: species or system mouse
Method in brief: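 hApoE2 knock-in mice (n=6/group, matched for body weight and plasma lipids) dosed once daily by intragastric gavage in carboxymethylcellulose for 7 or 8 days at indicated doses. Terminal blood on EDTA; total cholesterol and triglycerides measured colorimetrically.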

LDL = test: Protection against LDL oxidation by copper (conjugated diene formation); format: biochemical
Description: LDL oxidation is an important alteration and plays a predominant role in the establishment and development of atherosclerosis (Jurgens G et al., 1987). […] Unless otherwise indicated, the reagents were from Sigma (St Quentin, France). LDL were prepared according to the method described by (Havel R J et al., 1955). The solutions of test compounds were prepared at 10^−2 M concentration in bicarbonate buffer (pH 9) and diluted in PBS to obtain final concentrations ranging from 0.1 to 100 μM for a total ethanol concentration of […]. Prior to oxidation, EDTA was removed from the LDL preparation by dialysis. Oxidation then took place at 30° C. by addition of 100 μl of 16.6 μM CuSO4 solution to 160 μL of LDL (125 μg protein/ml) and 20 μl of a test compound solution. The formation of dienes, the species under observation, was followed by measuring optical density at 234 nm in the samples treated with the compounds but in the presence or absence of copper. Optical density at 234 nm was measured every 10 minutes for 8 hours in a thermostated spectrophotometer (Tecan Ultra 380). The compounds were considered to have antioxidant activity when they induced a longer lag phase and reduced the rate of oxidation and the amount of dienes formed in comparison with the control sample.

HaCat cells = test: Antioxidant properties on cell cultures (carboxy-H2DCFDA fluorescence, AAPH stress), keratinocytes; format: cell-based, human; conditions: 25 μM for 24 h, AAPH 750 μM
Method in brief: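 Cells were pretreated 24 h with compound at 25 μM, loaded 30 min at 37 °C with 25 μM carboxy-H2DCFDA, then stressed 30 min with 750 μM AAPH in phenol-red- and serum-free medium. ROS read as fluorescence ([…]); activity expressed as reduction in fluorescence signal.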

[2] = 200, 50, 12.5 and 3.125 mg/kg/day for 8 days

SMILES	plasma cholesterol ([1]; 50 mg/kg/day for 7 or 8 days, FIGS. 4-13, 4-15, 4-17, 4-19)	plasma triglycerides ([1]; 50 mg/kg/day for 7 or 8 days, FIGS. 4-14, 4-16, 4-18, 4-20)	cholesterol in lipoparticle subfraction (exclusion chromatography) [1, 2]	plasma cholesterol level [1, 2]	plasma triglycerides level [1, 2]	triglycerides in lipoparticle subfraction (exclusion chromatography) [1, 2]	lag phase of conjugated diene formation (LDL; 10^−4M, FIG. 1-7, copper alone 82 minutes) [min]	antioxidant properties on cell cultures (in words) (HaCat cells)	cholesterol in lipoparticle subfraction (exclusion chromatography) ([1]; 50 mg/kg/day for 8 days)	plasma cholesterol ([1]; 50 mg/kg/day for 8 days)	plasma triglycerides ([1]; 50 mg/kg/day for 8 days)	triglycerides in lipoparticle subfraction (exclusion chromatography) ([1]; 50 mg/kg/day for 8 days)	lag phase of conjugated diene formation (LDL; 10^−4M, FIG. 1-12, copper alone 120 minutes) [min]	rate of conjugated diene formation (LDL; 10^−4M, FIG. 1-13, copper alone 1.8)	maximum amount of conjugated dienes formed (LDL; FIG. 1-14, copper alone 372)
CSc1ccc(C(=O)/C=C/c2cc(C)c(OC(C)(C)C(=O)O)c(C)c2)cc1 [Compound 29, 1-[4-methylthiophenyl]-3-[3,5-dimethyl-4-carboxydimethylmethyloxyphenyl]prop-2-en-1-one]	decrease	decrease	decrease	dose-dependent decrease	dose-dependent decrease	decrease	135	antioxidant properties	–	–	–	–	–	–	–
Cc1cc(/C=C/C(=O)c2ccc(Br)cc2)cc(C)c1OC(C)(C)C(=O)O [Compound 41, 1-[4-bromophenyl]-3-[3,5-dimethyl-4-carboxydimethylmethyloxyphenyl]prop-2-en-1-one]	–	–	–	–	–	–	–	antioxidant properties	decrease	decrease	decrease	decrease	411	0.54 nmol/min/mg of LDL	71 nmol per mg of LDL
